Laboratory results taken from the NIST ThermoML archive (doi:10.1021/je800234h).

Assay: mn = molality of the nth substance listed, in mol/kg
Settings: Liquid, Vibrating tube method

[Ca+2].[Cl-].[Cl-] [calcium chloride] + CCO
Settings | mass density [kg/m3]
373.15 K, 30290 kPa, m1 = 0.09327 | 758.06
373.15 K, 30410 kPa, m1 = 0.1743 | 764.51
373.15 K, 35070 kPa, m1 = 1.266 | 842.89
373.15 K, 35370 kPa, m1 = 0.4379 | 787.22
373.15 K, 35420 kPa, m1 = 0.09327 | 762.76
373.15 K, 35480 kPa, m1 = 1.55 | 862.67
373.15 K, 35840 kPa, m1 = 0.6899 | 804.85
373.15 K, 35870 kPa, m1 = 0.1743 | 768.88
373.15 K, 35870 kPa, m1 = 0.9896 | 825.32
373.15 K, 39260 kPa, m1 = 0.4379 | 790.31
373.15 K, 39740 kPa, m1 = 0.1743 | 771.57
373.15 K, 39910 kPa, m1 = 0.09327 | 766.53
373.15 K, 39940 kPa, m1 = 0.6899 | 807.94
373.15 K, 39960 kPa, m1 = 0.9896 | 828.19
373.15 K, 39970 kPa, m1 = 1.266 | 846.74
373.15 K, 39970 kPa, m1 = 1.55 | 865.39
398.15 K, 620 kPa, m1 = 1.266 | 780.71
398.15 K, 680 kPa, m1 = 0.09327 | 692.59
398.15 K, 740 kPa, m1 = 1.55 | 801.26
398.15 K, 950 kPa, m1 = 0.4379 | 719.54
398.15 K, 970 kPa, m1 = 0.6899 | 737.62
398.15 K, 1030 kPa, m1 = 0.1743 | 700.75
398.15 K, 1060 kPa, m1 = 0.9896 | 760.33
398.15 K, 5070 kPa, m1 = 0.1743 | 707.51
398.15 K, 5070 kPa, m1 = 0.9896 | 766.76
398.15 K, 5100 kPa, m1 = 0.09327 | 700.41
398.15 K, 5160 kPa, m1 = 0.6899 | 744.53
398.15 K, 5180 kPa, m1 = 1.266 | 786.93
398.15 K, 5380 kPa, m1 = 0.4379 | 726.88
398.15 K, 5470 kPa, m1 = 1.55 | 808.33
398.15 K, 10020 kPa, m1 = 0.6899 | 752.01
398.15 K, 10060 kPa, m1 = 1.266 | 793.27
398.15 K, 10080 kPa, m1 = 0.09327 | 708.63
398.15 K, 10290 kPa, m1 = 0.4379 | 734.49
398.15 K, 10460 kPa, m1 = 1.55 | 815.02
398.15 K, 10540 kPa, m1 = 0.1743 | 716.08
398.15 K, 10540 kPa, m1 = 0.9896 | 774.89
398.15 K, 15240 kPa, m1 = 0.6899 | 759.43
398.15 K, 15290 kPa, m1 = 0.1743 | 722.99
398.15 K, 15290 kPa, m1 = 0.9896 | 781.35
398.15 K, 15410 kPa, m1 = 0.09327 | 716.75
398.15 K, 15610 kPa, m1 = 0.4379 | 742.12
398.15 K, 15620 kPa, m1 = 1.266 | 800.09
398.15 K, 15620 kPa, m1 = 1.55 | 821.29
398.15 K, 20030 kPa, m1 = 0.09327 | 723.21
398.15 K, 20080 kPa, m1 = 1.266 | 805.26
398.15 K, 20140 kPa, m1 = 0.1743 | 729.54
398.15 K, 20140 kPa, m1 = 1.55 | 826.33
398.15 K, 20410 kPa, m1 = 0.9896 | 787.68
398.15 K, 20480 kPa, m1 = 0.4379 | 748.53
398.15 K, 20620 kPa, m1 = 0.6899 | 766.4
398.15 K, 24980 kPa, m1 = 0.1743 | 735.56
398.15 K, 25060 kPa, m1 = 0.09327 | 729.63
398.15 K, 25080 kPa, m1 = 0.9896 | 792.89
398.15 K, 25340 kPa, m1 = 0.4379 | 754.4
398.15 K, 25340 kPa, m1 = 1.55 | 831.69
398.15 K, 25640 kPa, m1 = 1.266 | 811.31
398.15 K, 25890 kPa, m1 = 0.6899 | 772.57
398.15 K, 30030 kPa, m1 = 1.266 | 815.79
398.15 K, 30060 kPa, m1 = 0.4379 | 759.57
398.15 K, 30140 kPa, m1 = 0.6899 | 777.06
398.15 K, 30170 kPa, m1 = 0.09327 | 735.52
398.15 K, 30470 kPa, m1 = 1.55 | 836.6
398.15 K, 30740 kPa, m1 = 0.9896 | 798.47
398.15 K, 30780 kPa, m1 = 0.1743 | 742.1
398.15 K, 35180 kPa, m1 = 0.09327 | 740.65
398.15 K, 35180 kPa, m1 = 0.4379 | 764.61
398.15 K, 35460 kPa, m1 = 0.1743 | 746.84
398.15 K, 35740 kPa, m1 = 1.266 | 821.22
398.15 K, 35830 kPa, m1 = 1.55 | 841.39
398.15 K, 35940 kPa, m1 = 0.6899 | 782.51
398.15 K, 35970 kPa, m1 = 0.9896 | 802.93
398.15 K, 39290 kPa, m1 = 0.6899 | 785.29
398.15 K, 39380 kPa, m1 = 0.4379 | 768.3
398.15 K, 39760 kPa, m1 = 1.55 | 844.7
398.15 K, 39790 kPa, m1 = 0.1743 | 750.79
398.15 K, 39860 kPa, m1 = 0.9896 | 805.8
398.15 K, 39920 kPa, m1 = 0.09327 | 744.93
398.15 K, 39920 kPa, m1 = 1.266 | 824.91
